# Source: PubChem BioAssay (NCI)
#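 Assay format: 96-well plates, 48-hour exposure. Abbreviation: GI50, concentration required for 50% inhibition of growth. TGI: concentration producing complete growth inhibition.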
# Columns and labels:
# Assay in all cases: growth of human tumour cells (NCI), 48 h
# NCI-H23 lung = system: NCI-H23 lung
# HCC-2998 colon = system: HCC-2998 colon
# HCT-116 colon = system: HCT-116 colon
# UACC-257 melanoma = system: UACC-257 melanoma
# OVCAR-8 ovarian = system: OVCAR-8 ovarian
# SF-539 CNS = system: SF-539 CNS
# CAKI-1 renal = system: CAKI-1 renal
# MDA-MB-231 breast = system: MDA-MB-231 breast
# SW-620 colon = system: SW-620 colon
# U251 CNS = system: U251 CNS
# T-47D breast = system: T-47D breast
# PC-3 prostate = system: PC-3 prostate
# TK-10 renal = system: TK-10 renal
# COLO 205 colon = system: COLO 205 colon
# OVCAR-4 ovarian = system: OVCAR-4 ovarian
# IGROV1 ovarian = system: IGROV1 ovarian
# DU-145 prostate = system: DU-145 prostate
# HOP-92 NSCLC = system: HOP-92 NSCLC
# SK-OV-3 ovarian = system: SK-OV-3 ovarian
# SNB-19 CNS = system: SNB-19 CNS
# UACC-62 melanoma = system: UACC-62 melanoma
# EKVX NSCLC = system: EKVX NSCLC
# A549 NSCLC = system: A549 NSCLC
# SNB-75 CNS = system: SNB-75 CNS
# OVCAR-3 ovarian = system: OVCAR-3 ovarian
# SN12C renal = system: SN12C renal
# KM12 colon = system: KM12 colon
# LOX IMVI melanoma = system: LOX IMVI melanoma
# SK-MEL-28 melanoma = system: SK-MEL-28 melanoma
# UO-31 renal = system: UO-31 renal
# MDA-MB-435 = system: MDA-MB-435
# NCI-H460 lung = system: NCI-H460 lung
# K-562 leukemia = system: K-562 leukemia
# SK-MEL-5 melanoma = system: SK-MEL-5 melanoma
# SF-268 CNS = system: SF-268 CNS
# NCI-H226 lung = system: NCI-H226 lung
# HS 578T breast = system: HS 578T breast
# HT29 colon = system: HT29 colon
# CCRF-CEM leukemia = system: CCRF-CEM leukemia
# HL-60(TB) leukemia = system: HL-60(TB) leukemia
# MALME-3M melanoma = system: MALME-3M melanoma
# HOP-62 NSCLC = system: HOP-62 NSCLC
# NCI/ADR-RES ovarian = system: NCI/ADR-RES ovarian
# HCT-15 colon = system: HCT-15 colon
# SK-MEL-2 melanoma = system: SK-MEL-2 melanoma
# 786-0 renal = system: 786-0 renal
# MOLT-4 leukemia = system: MOLT-4 leukemia
# SF-295 CNS = system: SF-295 CNS
# SR leukemia = system: SR leukemia
# MCF7 breast = system: MCF7 breast
# A498 renal = system: A498 renal
# RPMI-8226 leukemia = system: RPMI-8226 leukemia
# NCI-H522 lung = system: NCI-H522 lung
# ACHN renal = system: ACHN renal
# OVCAR-5 ovarian = system: OVCAR-5 ovarian
# BT-549 breast = system: BT-549 breast
# M14 melanoma = system: M14 melanoma
# RXF 393 renal = system: RXF 393 renal
smiles,measurement,setting,value
Cc1cc(NNC(=O)c2ccccc2O)nc(Nc2nc3ccccc3o2)n1,GI50,NCI-H23 lung,3.99 µM
same,TGI,NCI-H23 lung,37.8 µM
same,GI50,HCC-2998 colon,2.13 µM
same,TGI,HCC-2998 colon,13.8 µM
same,GI50,HCT-116 colon,1.06 µM
same,TGI,HCT-116 colon,7.47 µM
same,GI50,UACC-257 melanoma,3.25 µM
same,TGI,UACC-257 melanoma,11.5 µM
same,GI50,OVCAR-8 ovarian,1.9 µM
same,TGI,OVCAR-8 ovarian,12.8 µM
same,GI50,SF-539 CNS,1.41 µM
same,TGI,SF-539 CNS,11.2 µM
same,GI50,CAKI-1 renal,1.73 µM
same,TGI,CAKI-1 renal,14.3 µM
same,GI50,MDA-MB-231 breast,0.71 µM
same,TGI,MDA-MB-231 breast,16.2 µM
same,GI50,SW-620 colon,3.03 µM
same,TGI,SW-620 colon,17.8 µM
same,GI50,U251 CNS,0.628 µM
same,TGI,U251 CNS,13.4 µM
same,GI50,T-47D breast,2.92 µM
same,TGI,T-47D breast,21.5 µM
same,GI50,PC-3 prostate,0.912 µM
same,TGI,PC-3 prostate,13.7 µM
same,GI50,TK-10 renal,2.73 µM
same,TGI,TK-10 renal,23.4 µM
same,GI50,COLO 205 colon,2.75 µM
same,TGI,COLO 205 colon,15.4 µM
same,GI50,OVCAR-4 ovarian,0.79 µM
same,TGI,OVCAR-4 ovarian,7.06 µM
same,GI50,IGROV1 ovarian,1.3 µM
same,TGI,IGROV1 ovarian,12.2 µM
same,GI50,DU-145 prostate,1.83 µM
same,TGI,DU-145 prostate,18.3 µM
same,GI50,HOP-92 NSCLC,1.11 µM
same,TGI,HOP-92 NSCLC,13.9 µM
same,GI50,SK-OV-3 ovarian,0.633 µM
same,TGI,SK-OV-3 ovarian,2.22 µM
same,GI50,SNB-19 CNS,1.86 µM
same,TGI,SNB-19 CNS,21.3 µM
same,GI50,UACC-62 melanoma,0.966 µM
same,TGI,UACC-62 melanoma,11.4 µM
same,GI50,EKVX NSCLC,2.81 µM
same,TGI,EKVX NSCLC,15.2 µM
same,GI50,A549 NSCLC,1.13 µM
same,TGI,A549 NSCLC,10.3 µM
same,GI50,SNB-75 CNS,3.49 µM
same,TGI,SNB-75 CNS,17.4 µM
same,GI50,OVCAR-3 ovarian,2.06 µM
same,TGI,OVCAR-3 ovarian,15.6 µM
same,GI50,SN12C renal,1.62 µM
same,TGI,SN12C renal,19.1 µM
same,GI50,KM12 colon,1.01 µM
same,TGI,KM12 colon,35.2 µM
same,GI50,LOX IMVI melanoma,0.607 µM
same,TGI,LOX IMVI melanoma,4.41 µM
same,GI50,SK-MEL-28 melanoma,1.64 µM
same,TGI,SK-MEL-28 melanoma,13.3 µM
same,GI50,UO-31 renal,0.622 µM
same,TGI,UO-31 renal,1.91 µM
same,GI50,MDA-MB-435,3.02 µM
same,TGI,MDA-MB-435,17.8 µM
same,GI50,NCI-H460 lung,0.422 µM
same,TGI,NCI-H460 lung,6.77 µM
same,GI50,K-562 leukemia,2.31 µM
same,TGI,K-562 leukemia,> 66.2 µM
same,GI50,SK-MEL-5 melanoma,1.11 µM
same,TGI,SK-MEL-5 melanoma,6.72 µM
same,GI50,SF-268 CNS,1.13 µM
same,TGI,SF-268 CNS,40.8 µM
same,GI50,NCI-H226 lung,1.66 µM
same,TGI,NCI-H226 lung,8.47 µM
same,GI50,HS 578T breast,3.26 µM
same,TGI,HS 578T breast,37.5 µM
same,GI50,HT29 colon,3.31 µM
same,TGI,HT29 colon,15.4 µM
same,TGI,CCRF-CEM leukemia,11.8 µM
same,GI50,HL-60(TB) leukemia,1.13 µM
same,TGI,HL-60(TB) leukemia,6.99 µM
same,GI50,MALME-3M melanoma,2.98 µM
same,TGI,MALME-3M melanoma,15.5 µM
same,GI50,HOP-62 NSCLC,0.865 µM
same,TGI,HOP-62 NSCLC,13.5 µM
same,GI50,NCI/ADR-RES ovarian,1.3 µM
same,TGI,NCI/ADR-RES ovarian,7 µM
same,GI50,HCT-15 colon,1.17 µM
same,TGI,HCT-15 colon,> 39.5 µM
same,GI50,SK-MEL-2 melanoma,2.24 µM
same,TGI,SK-MEL-2 melanoma,13.3 µM
same,GI50,786-0 renal,1.8 µM
same,TGI,786-0 renal,7.98 µM
same,GI50,MOLT-4 leukemia,1.31 µM
same,TGI,MOLT-4 leukemia,7.88 µM
same,GI50,SF-295 CNS,0.846 µM
same,TGI,SF-295 CNS,14.4 µM
same,GI50,SR leukemia,0.602 µM
same,TGI,SR leukemia,7.31 µM
same,GI50,MCF7 breast,1.88 µM
same,TGI,MCF7 breast,20.7 µM
same,GI50,A498 renal,1.53 µM
same,TGI,A498 renal,3.25 µM
same,GI50,RPMI-8226 leukemia,1.85 µM
same,TGI,RPMI-8226 leukemia,13.9 µM
same,GI50,NCI-H522 lung,2.5 µM
same,TGI,NCI-H522 lung,12.9 µM
same,GI50,ACHN renal,1.02 µM
same,TGI,ACHN renal,12.2 µM
same,GI50,OVCAR-5 ovarian,2.52 µM
same,TGI,OVCAR-5 ovarian,15.9 µM
same,GI50,BT-549 breast,4.52 µM
same,TGI,BT-549 breast,28.2 µM
same,GI50,M14 melanoma,0.854 µM
same,TGI,M14 melanoma,3.44 µM
same,GI50,RXF 393 renal,1.69 µM
same,TGI,RXF 393 renal,7.3 µM
